The record followed here is US20230040770A1, “HETEROCYCLIC COMPOUND AND USE THEREOF” (TAKEDA PHARMACEUTICAL COMPANY LIMITED, priority 2019, published 2023).

The target of the assay is T1, human orexin type 2 receptor (Homo sapiens, UniProt O43614).
T1 construct: expressed in transfected cells
T1 sequence (O43614 1-444): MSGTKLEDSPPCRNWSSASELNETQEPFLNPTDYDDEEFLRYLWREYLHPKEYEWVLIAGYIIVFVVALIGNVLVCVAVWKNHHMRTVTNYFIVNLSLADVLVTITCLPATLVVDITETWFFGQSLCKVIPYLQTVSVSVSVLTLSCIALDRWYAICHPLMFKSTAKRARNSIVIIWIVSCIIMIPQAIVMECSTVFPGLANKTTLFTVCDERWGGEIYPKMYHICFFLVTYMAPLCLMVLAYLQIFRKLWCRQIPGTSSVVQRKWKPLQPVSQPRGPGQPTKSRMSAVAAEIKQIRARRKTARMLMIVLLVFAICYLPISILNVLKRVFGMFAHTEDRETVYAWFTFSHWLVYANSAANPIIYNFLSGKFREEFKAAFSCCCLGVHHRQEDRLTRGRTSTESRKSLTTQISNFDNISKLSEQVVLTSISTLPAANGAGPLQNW
The assay is described as follows: Measurement of orexin type 2 receptor agonist activity (calcium indicator fluorescence, CHO cells forcibly expressing human OX2 receptor). Type of assay: cell-based. Conditions: compound at 3 μM; 0% = DMSO, 100% = orexin A (human) 10 nM. Put shortly: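 CHO-dhfr cells stably expressing human OX2R, loaded with Fluo-4 AM (30 min 37 °C, then 30 min RT), then given test compound. Calcium fluorescence read by FDSS over ~2 min. Activity (%) scaled from DMSO (0%) to 10 nM final orexin A (100%).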
With `Cc1cccc(-c2cccc(C[C@H]3[C@@H](NS(=O)(=O)N(C)C)C(F)(F)CN3C(=O)C3CCO3)c2F)c1` (stereo partly drawn) [Example 432, N′-[(2S,3R)-4,4-difluoro-2-[(2-fluoro-3′-methyl[1,1′-biphenyl]-3-yl)methyl]-1-(oxetane-2-carbonyl)pyrrolidin-3-yl]-N,N-dimethylsulfuric diamide], the “OX2R agonist activity (3 μM, %)” value is 95%.

For the compound `Cc1cccc(-c2cccc(C[C@H]3[C@@H](NS(=O)(=O)N(C)C)C(F)(F)CN3C(=O)C3CCO3)c2F)c1` (stereo partly drawn) [Example 434, N′-[(2S,3R)-4,4-difluoro-2-[(2-fluoro-3′-methyl[1,1′-biphenyl]-3-yl)methyl]-1-(oxetane-2-carbonyl)pyrrolidin-3-yl]-N,N-dimethylsulfuric diamide], the “OX2R agonist activity (3 μM, %)” value was 101%.

Turning to `CS(=O)(=O)N[C@@H]1[C@H](Cc2cccc(-c3cccc(F)c3F)c2F)N(C(=O)C2CC(F)C2)CC1(F)F` (stereo partly drawn) [Example 435, N-{(2S,3R)-4,4-difluoro-1-(3-fluorocyclobutane-1-carbonyl)-2-[(2,2′,3′-trifluoro[1,1′-biphenyl]-3-yl)methyl]pyrrolidin-3-yl}methanesulfonamide], the “OX2R agonist activity (3 μM, %)” value was determined as 88%.

In the case of `CS(=O)(=O)N[C@@H]1[C@H](Cc2cccc(-c3cccc(F)c3F)c2F)N(C(=O)C2CC(F)C2)CC1(F)F` (stereo partly drawn) [Example 436, N-{(2S,3R)-4,4-difluoro-1-(3-fluorocyclobutane-1-carbonyl)-2-[(2,2′,3′-trifluoro[1,1′-biphenyl]-3-yl)methyl]pyrrolidin-3-yl}methanesulfonamide], the “OX2R agonist activity (3 μM, %)” value is listed as 92%.

For `CS(=O)(=O)N[C@@H]1[C@H](Cc2cccc(-c3cc(F)ccc3F)c2F)N(C(=O)C2CC(F)C2)CC1(F)F` (stereo partly drawn) [Example 437, N-{(2S,3R)-4,4-difluoro-1-(3-fluorocyclobutane-1-carbonyl)-2-[(2,2′,5′-trifluoro[1,1′-biphenyl]-3-yl)methyl]pyrrolidin-3-yl}methanesulfonamide], the “OX2R agonist activity (3 μM, %)” value stood at 84%.

For the compound `CN(C)S(=O)(=O)N[C@@H]1[C@H](Cc2cccc(-c3cccc(F)c3F)c2F)N(C(=O)C2(O)CCC2)CC1(F)F` [Example 438, N′-{(2S,3R)-4,4-difluroo-1-(1-hydroxycyclobutane-1-carbonyl)-2-[(2,2′,3′-trifluoro[1,1′-biphenyl]-3-yl)methyl]pyrrolidin-3-yl}-N,N-dimethylsulfuric diamide], the “OX2R agonist activity (3 μM, %)” value came to 95%.

With `CS(=O)(=O)N[C@@H]1[C@H](Cc2cccc(-c3cc(F)ccc3F)c2F)N(C(=O)C2CC(F)C2)CC1(F)F` (stereo partly drawn) [Example 439, N-{(2S,3R)-4,4-difluoro-1-(3-fluorocyclobutane-1-carbonyl)-2-[(2,2′,5′-trifluoro[1,1′-biphenyl]-3-yl)methyl]pyrrolidin-3-yl}methanesulfonamide], the “OX2R agonist activity (3 μM, %)” value worked out at 93%.

As for `CS(=O)(=O)N[C@@H]1[C@H](Cc2cccc(-c3ccccc3)c2F)N(C(=O)C2CC(F)C2)CC1(F)F` (stereo partly drawn) [Example 440, N-[(2S,3R)-4,4-difluoro-2-[(2-fluoro[1,1′-biphenyl]-3-yl)methyl]-1-(3-fluorocyclobutane-1-carbonyl)pyrrolidin-3-yl]methanesulfonamide], the “OX2R agonist activity (3 μM, %)” value was determined as 94%.

On to `CS(=O)(=O)N[C@@H]1[C@H](Cc2cccc(-c3ccccc3)c2F)N(C(=O)C2CC(F)C2)CC1(F)F` (stereo partly drawn) [Example 441, N-[(2S,3R)-4,4-difluoro-2-[(2-fluoro[1,1′-biphenyl]-3-yl)methyl]-1-(3-fluorocyclobutane-1-carbonyl)pyrrolidin-3-yl]methanesulfonamide], for which the “OX2R agonist activity (3 μM, %)” value came out at 93%.

Consider `Cc1cccc(-c2cccc(C[C@H]3[C@@H](NS(=O)(=O)N(C)C)C(F)(F)CN3C(=O)N(C)C)c2F)c1` [Example 442, (2S,3R)-3-[(dimethylsulfamoyl)amino]-4,4-difluoro-2-[(2-fluoro-3′-methyl[1,1′-biphenyl]-3-yl)methyl]-N,N-dimethylpyrrolidine-1-carboxamide], for which the “OX2R agonist activity (3 μM, %)” value is 96%.

For `CCS(=O)(=O)N[C@@H]1[C@H](Cc2cccc(-c3cc(C)cc(F)c3)c2F)N(C(=O)N2CCC2)CC1(F)F` [Example 444, N-{(2S,3R)-1-(azetidine-1-carbonyl)-2-[(2,3′-difluoro-5′-methyl[1,1′-biphenyl]-3-yl)methyl]-4,4-difluoropyrrolidin-3-yl}ethanesulfonamide], the “OX2R agonist activity (3 μM, %)” value came out at 98%.

Regarding `CCS(=O)(=O)N[C@@H]1[C@H](Cc2cccc(-c3cc(C)cc(F)c3)c2F)N(C(=O)N(C)C)CC1(F)F` [Example 447, (2S,3R)-2-[(2,3′-difluoro-5′-methyl[1,1′-biphenyl]-3-yl)methyl]-3-[(ethanesulfonyl)amino]-4,4-difluoro-N,N-dimethylpyrrolidine-1-carboxamide], the “OX2R agonist activity (3 μM, %)” value is 95%.

Consider `CCS(=O)(=O)N[C@@H]1[C@H](Cc2cccc(-c3cccc(F)c3)c2F)N(C(=O)[C@H]2CCCO2)CC1(F)F` [Example 453, N-{(2S,3R)-2-[(2,3′-difluoro[1,1′-biphenyl]-3-yl)methyl]-4,4-difluoro-1-[(2R)-oxolane-2-carbonyl]pyrrolidin-3-yl}ethanesulfonamide], for which the “OX2R agonist activity (3 μM, %)” value is on record as 85%.

Consider `CCS(=O)(=O)N[C@@H]1[C@H](Cc2cccc(-c3cc(F)cc(F)c3)c2F)N(C(=O)[C@H]2CCCO2)CC1(F)F` [Example 454, N-{(2S,3R)-4,4-difluoro-1-[(2R)-oxolane-2-carbonyl]-2-[(2,3′,5′-trifluoro[1,1′-biphenyl]-3-yl)methyl]pyrrolidin-3-yl}ethanesulfonamide], for which the “OX2R agonist activity (3 μM, %)” value stood at 84%.

For the compound `CCS(=O)(=O)N[C@@H]1[C@H](Cc2cccc(-c3cccc(F)c3F)c2F)N(C(=O)[C@H]2CCCO2)CC1(F)F` [Example 455, N-{(2S,3R)-4,4-difluoro-1-[(2R)-oxolane-2-carbonyl]-2-[(2,2′,3′-trifluoro[1,1′-biphenyl]-3-yl)methyl]pyrrolidin-3-yl}ethanesulfonamide], the “OX2R agonist activity (3 μM, %)” value worked out at 85%.

As for `CCS(=O)(=O)N[C@@H]1[C@H](Cc2cccc(-c3cc(F)ccc3F)c2F)N(C(=O)[C@H]2CCCO2)CC1(F)F` [Example 456, N-{(2S,3R)-4,4-difluoro-1-[(2R)-oxolane-2-carbonyl]-2-[(2,2′,5′-trifluoro[1,1′-biphenyl]-3-yl)methyl]pyrrolidin-3-yl}ethanesulfonamide], the “OX2R agonist activity (3 μM, %)” value is listed as 77%.

Take `CCS(=O)(=O)N[C@@H]1[C@H](Cc2cccc(-c3cccc(C(F)F)c3)c2F)N(C(=O)[C@H]2CCCO2)CC1(F)F` [Example 457, N-{(2S,3R)-2-{[3′-(difluoromethyl)-2-fluoro[1,1′-biphenyl]-3-yl]methyl}-4,4-difluoro-1-[(2R)-oxolane-2-carbonyl]pyrrolidin-3-yl}ethanesulfonamide]: the “OX2R agonist activity (3 μM, %)” value is reported as 80%.

Take `CN(C)S(=O)(=O)N[C@H]1[C@@H](F)CN(C(=O)N2CCC2)[C@H]1Cc1cccc(-c2cc(F)cc(F)c2)c1F` [Example 458, N′-{(2S,3R,4S)-1-(azetidine-1-carbonyl)-4-fluoro-2-[(2,3′,5′-trifluoro[1,1′-biphenyl]-3-yl)methyl]pyrrolidin-3-yl}-N,N-dimethylsulfuric diamide]: the “OX2R agonist activity (3 μM, %)” value is reported as 84%.

`CCS(=O)(=O)N[C@@H]1[C@H](Cc2cccc(-c3cccc(C)c3)c2F)N(C(=O)C(C)(C)O)CC1(F)F` [Example 465, N-[(2S,3R)-4,4-difluoro-2-[(2-fluoro-3′-methyl[1,1′-biphenyl]-3-yl)methyl]-1-(2-hydroxy-2-methylpropanoyl)pyrrolidin-3-yl]ethanesulfonamide]: the “OX2R agonist activity (3 μM, %)” value is given as 106%.

For `CCS(=O)(=O)N[C@@H]1[C@H](Cc2cccc(-c3ccc(F)c(C)c3)c2F)N(C(=O)C(C)(C)O)CC1(F)F` [Example 466, N-[(2S,3R)-2-[(2,4′-difluoro-3′-methyl[1,1′-biphenyl]-3-yl)methyl]-4,4-difluoro-1-(2-hydroxy-2-methylpropanoyl)pyrrolidin-3-yl]ethanesulfonamide], the “OX2R agonist activity (3 μM, %)” value turned out to be 103%.

With `CCS(=O)(=O)N[C@@H]1[C@H](Cc2cccc(-c3ccc(F)c(F)c3)c2F)N(C(=O)C2CCO2)CC1(F)F` (stereo partly drawn) [Example 467, N-{(2S,3R)-4,4-difluoro-1-(oxetane-2-carbonyl)-2-[(2,3′,4′-trifluoro[1,1′-biphenyl]-3-yl)methyl]pyrrolidin-3-yl}ethanesulfonamide], the “OX2R agonist activity (3 μM, %)” value was determined as 105%.

`CCS(=O)(=O)N[C@@H]1[C@H](Cc2cccc(-c3ccc(F)c(F)c3)c2F)N(C(=O)C2CCO2)CC1(F)F` (stereo partly drawn) [Example 468, N-{(2S,3R)-4,4-difluoro-1-(oxetane-2-carbonyl)-2-[(2,3′,4′-trifluoro[1,1′-biphenyl]-3-yl)methyl]pyrrolidin-3-yl}ethanesulfonamide]: the “OX2R agonist activity (3 μM, %)” value is 102%.

In the case of `CCS(=O)(=O)N[C@@H]1[C@H](Cc2cccc(-c3cc(F)c(F)cc3F)c2F)N(C(=O)C2CCO2)CC1(F)F` (stereo partly drawn) [Example 469, N-{(2S,3R)-4,4-difluroo-1-(oxetane-2-carbonyl)-2-[(2,2′,4′5′-tetrafluoro[1,1′-biphenyl]-3-yl)methyl]pyrrolidin-3-yl}ethanesulfonamide], the “OX2R agonist activity (3 μM, %)” value is given as 91%.
